Measurements from a melting point compilation (Tetko et al.; mined from patent text by program, amines drawn as free bases though some values may be those of a salt).

Compound	melting point [°C]
CS(=O)(=O)N(Cl)C(=O)c1cc(Oc2ccc(C(F)(F)F)cc2Cl)ccc1[N+](=O)[O-]	160 to 161
O=C1N(Cc2ccc(-c3ccccc3C(F)(F)F)o2)c2ccccc2C12COc1cc3c(cc12)OCOC3 (configuration not stated)	124 to 126
COc1cc2c(cc1OC)-c1cc(=Nc3c(C)cc(C)cc3C)n(C(C)C)c(=O)n1CC2	178 to 179
CC(=O)N1CCc2ccc(NS(=O)(=O)c3ccccc3)cc2C1	180 to 182
CC(C)(C)c1cc(NC(=S)NCc2ccc(N)cc2)cc(C(C)(C)C)c1O	167 to 169
CC(C)(C)NS(=O)(=O)c1cccc(NC(=O)c2cnn3c(C(F)F)cc(-c4ccc(C(F)(F)F)cc4)nc23)c1	228
CSc1c[nH]c2ncnc(Cl)c12	166 to 167
Oc1ccc(OCCCCCCCCOc2ccc(O)cc2)cc1	151 to 154
c1cc2[nH]ncc2cc1OC1CCCC1	141 to 142
COc1cc(C(O)c2ccc3ccccc3c2)ccc1OCc1ccccc1 (configuration not stated)	113 to 114
CCOC(=O)C(=O)CC(=O)c1cn(Cc2ccc(F)cc2)c2c(Cl)cccc2c1=O	164 to 165
O=C(O)c1cc(O)cc2cc(-c3ccc(O)cc3)oc12	260 to 262
Cc1n[nH]cc1-c1cnc2[nH]c(=O)n(CC3CCOCC3)c2n1	222 to 224
CC(C)(C)Sc1cccc(C(F)(F)F)c1S(N)(=O)=O	91
Cc1c(C)c2c(c(C)c1N)CC(C)(CN1CCC(Cc3ccccc3)CC1)O2 (configuration not stated)	71 to 73
CC(=O)N1CC(=O)N(CC(N)=O)C1(C)C	188 to 189
CCN(CC)C(=O)c1ccc2ccccc2c1-c1cccc(COC(C)(C)C)c1	117 to 119
Cc1cc([N+](=O)[O-])ccc1S(=O)(=O)n1c(Br)nc(Br)c1C	187 to 189
CCOC(=O)c1cccc(N2C(=O)C=CC2=O)c1C(=O)OCC	86 to 90
CCN(C(=O)c1ccccc1C(=O)c1ccccc1)C1CCCCC1NS(=O)(=O)c1ccc(C)cc1 (configuration not stated)	202 to 204
CCOC(=O)c1c[nH]c(SC(F)(F)F)c1-c1ccc(Cl)cc1	162 to 164
CCCN(CCC)C(=O)CNc1nc(-c2ccccc2)nc(C(F)(F)F)c1Cl	115 to 117
CC(=O)C1=C(O)C(=C(C)Nc2cccc(NS(C)(=O)=O)c2)C(=O)OC1=O	196
Clc1c(-c2ccc(OCc3ccccc3)cc2)[nH]c2ccc(OCc3ccccc3)cc12	157 to 160

Compound	melting point [°C]
CCCCCCCCCCCCCCCCc1nc(N(C)C)nc(OC)c1O	78 to 79
CCCc1c(OCCCC(=O)NC(C)CCCc2cccnc2)ccc(C(C)=O)c1O (configuration not stated)	97 to 99
CCS(=O)(=O)c1ccc(C(CC2CCCC2)C(=O)NC(=O)NC)cc1 (configuration not stated)	200 to 201
CCOCCOC(=O)c1cc2cc(Br)ccc2nn1	128 to 130
COC(=O)C1=C(C)NC(C#N)=C(C(=O)OC)C1c1cccc([N+](=O)[O-])c1 (configuration not stated)	206 to 207
CCCc1nn(CC)c2c(=O)[nH]c(-c3cc(S(=O)(=O)Cl)ccc3OCC)nc12	170 to 172
O=C1c2ccccc2C(F)(F)C(F)(F)c2ccccc21	70 to 75
Cc1cc(N=Nc2ccccn2)ccc1-c1ccc(-c2ccc(N=Nc3ccccn3)cc2C)s1	152 to 153
Nc1nc(I)nc2c1ncn2C1OC(CO)C(O)C1O (configuration not stated)	141 to 144
Cc1cccc2ncc(C(=O)NC(C)(C)CC(C)(C)C)c(=O)n12	126 to 129
CCN(c1ccncc1)c1ccccc1C(=O)N1CCCCC1	123 to 124
CC(C)(C)OC(=O)[C@@H](N)Cc1cc(I)c(O)c(I)c1	165 to 168
CCCCNC(=O)c1ccc2c(c1)[C@H]1OCCN(CCC)[C@@H]1CC2 (relative stereo)	128 to 131
CSc1nc(Cl)c2ccsc2n1	105 to 107
CCCc1c(OCCCOc2c(C(C)=O)ccc(OCCCCCC(=O)O)c2CCC)ccc(C(C)=O)c1O	105 to 108
Cc1ccc2c(C3CCN(CCN4CCN(C(C)C)C4=O)CC3)cn(-c3ccc(F)cc3)c2c1	124
CCOC1=NS(=O)(=O)C(C(=O)OC(C)(C)C)=C1N	128 to 130
Nc1nc2ccccc2c2c1nc1n2OCC1	> 300
CC(=O)N1c2cc(C)c(S(=O)(=O)C[N+](=O)[O-])c(C)c2CC1C (configuration not stated)	175
CCOC(=O)c1ccc(-c2cc(C(=O)OCC)c(N)[nH]2)cc1	150 to 151
CCCc1c(OCC(O)CSc2ccc(C(=O)CCC(=O)O)cc2)ccc(C(C)=O)c1O (configuration not stated)	115 to 116
O=C1/C(=C/C=C/c2ccccc2)CCc2cc(OCCn3ccnc3)ccc21	198 to 200
CC(=O)OC1CSC(Oc2ccncc2)C(OC(C)=O)C1OC(C)=O (configuration not stated)	152 to 158
CC(=O)N1CCN(c2ccc(O)cc2Br)CC1	212 to 214

Compound	melting point [°C]
COC(=O)COc1cc(C(C)=O)c(O)c2ccccc12	123 to 124
Clc1ccc(OCc2noc(-c3ccccc3)n2)cc1	96 to 102
Cc1nc(O)cc(C(F)(F)F)n1	141 to 143
NC(=O)c1nc(-c2cncc(Cl)c2)nc2c1[nH]c(=O)n2-c1ccccc1C(F)(F)F	230 to 232
COC(=O)c1cccc(OCCCOc2cc3c(cc2O)CCO3)c1	93
COc1cc2ncnc(N3CCN(C(=S)NC4CCOC4=O)CC3)c2cc1OC (configuration not stated)	147 to 148
CNC(=S)C1(c2cccnc2)CCCCC1=CCOc1ccc(O)cc1 (configuration not stated)	82 to 88
CNC(=O)c1nnn(Cc2ccccc2)c1N	151 to 153
CN1CCN(C2=Nc3ccccc3C(O)(c3ccccc3)C2(C)C)CC1 (configuration not stated)	268 to 269
CCCCCCCCCC(=O)Nc1cc(C(=O)O)ccc1C	246 to 250
CCOc1cc2c(-c3ccnc(Cl)c3)c(CO)c(CO)cc2cc1OC	123 to 126
Cc1noc(-c2ccc(F)cc2N)n1	146 to 148
CCC(COC)Nc1nc(C)nc(N2CCc3cc(OC)cc(Cl)c32)c1C=O (configuration not stated)	150 to 153
O=C(Nc1cccc(F)c1)Nc1ccnc(C(F)(F)F)c1	165 to 167
COc1cccc(OC)c1C(=O)NC(=O)Nc1ccc(Sc2ccc(Cl)cc2)nc1	172 to 174
COC(=O)c1ccc(-n2c(C)nc3ccccc32)cc1	153 to 154
OC(CNc1ccc(Cl)cc1Cl)Cn1ccnc1 (configuration not stated)	107 to 109
O=C1C[C@H](O)C(=O)N1Cc1ccccc1	110 to 113
CN(CCCCCCCCNC(=O)NCCSCc1csc(NC(=N)N)n1)CCC(c1ccc(Cl)cc1)c1ccccn1 (configuration not stated)	135 to 140
Cc1c(NC(=O)c2ccc(OC[C@@H]3CCCO3)cc2)ccc2c1cc(CNCC1CCOCC1)n2C	166 to 167
CC(C)(C)OC(=O)NNc1ccc(NC(=O)OC(C)(C)C)cc1	155
CC(C)(C)c1ccc(-c2nc(N)sc2-c2ccncc2)cc1	254 to 257
CS(=O)c1nnc(-c2ccc3ncn(-c4ccc(OC(F)(F)F)cc4)c3c2)o1 (configuration not stated)	152 to 153
COc1cccn2c(=O)c3c(nc12)C(=Cc1ccccc1Cl)CC3	247 to 248
